# Experimental data reported in PubChem BioAssay AID328 (DTP/NCI, 2004).
# Values joined by “and” are separate entries in the source; they are usually repeats but may differ in a detail not shown here. Equal entries are not always repeated. Toxic doses and inconclusive results are not listed.
# System: BDF1 mice, P388 leukemia ip, median survival T/C
# Experiment: NCI In Vivo Anticancer Drug Screen. Data for tumor model P388 Leukemia (intraperitoneal) in B6D2F1 (BDF1) mice
# Conditions: endpoint: median survival time, higher = longer survival
# Procedure, shortened: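 Antitumour effect was judged in vivo: survival in drug-treated mice, normalised to that of vehicle-dosed controls, gives the reported T/C.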
# [1] = dose: 12.5 mg/kg/injection, schedule: Q01DX009 (ip), vehicle: saline with Tween-80
# [2] = dose: 50.0 mg/kg/injection, schedule: Q01DX009 (ip), vehicle: saline with Tween-80
# [3] = dose: 100.0 mg/kg/injection, schedule: Q01DX009 (ip), vehicle: saline with Tween-80
# [4] = dose: 100.0 mg/kg/injection, schedule: Q04DX003 (ip), vehicle: saline with Tween-80
# [5] = dose: 200.0 mg/kg/injection, schedule: Q01DX009 (ip), vehicle: saline with Tween-80
# [6] = dose: 200.0 mg/kg/injection, schedule: Q04DX003 (ip), vehicle: saline with Tween-80
# [7] = dose: 400.0 mg/kg/injection, schedule: Q01DX009 (ip), vehicle: saline with Tween-80
# [8] = dose: 400.0 mg/kg/injection, schedule: Q04DX003 (ip), vehicle: saline with Tween-80
# [9] = dose: 100.0 mg/kg/injection, schedule: Q04DX003 (ip), vehicle: other
# [10] = dose: 200.0 mg/kg/injection, schedule: Q04DX003 (ip), vehicle: other
# [11] = dose: 400.0 mg/kg/injection, schedule: Q04DX003 (ip), vehicle: other
# [12] = dose: 25.0 mg/kg/injection, schedule: Q01DX009 (ip), vehicle: saline
# [13] = dose: 50.0 mg/kg/injection, schedule: Q01DX009 (ip), vehicle: saline
# [14] = dose: 25.0 mg/kg/injection, schedule: Q01DX009 (ip), vehicle: saline with Tween-80
# [15] = dose: 25.0 mg/kg/injection, schedule: Q01DX009 (ip), vehicle: Klucel (hydroxypropylcellulose) (HPC)
# [16] = dose: 50.0 mg/kg/injection, schedule: Q04DX003 (ip), vehicle: saline with Tween-80
# [17] = dose: 100.0 mg/kg/injection, schedule: Q04DX003 (ip), vehicle: Klucel (hydroxypropylcellulose) (HPC)
# [18] = dose: 100.0 mg/kg/injection, schedule: Q01DX009 (ip), vehicle: Klucel (hydroxypropylcellulose) (HPC)
# [19] = dose: 200.0 mg/kg/injection, schedule: Q04DX003 (ip), vehicle: Klucel (hydroxypropylcellulose) (HPC)
# [20] = dose: 400.0 mg/kg/injection, schedule: Q04DX003 (ip), vehicle: Klucel (hydroxypropylcellulose) (HPC)
# [21] = dose: 200.0 mg/kg/injection, schedule: Q01DX009 (ip), vehicle: Klucel (hydroxypropylcellulose) (HPC)
smiles,measurement,setting,value
O=[N+]([O-])c1ccc(OCCNS(=O)(=O)c2cccc(S(=O)(=O)F)c2)c(Cl)c1,T/C,[1],110 % of control
same,T/C,[2],110 % of control
same,T/C,[3],94 % of control
same,T/C,[4],99 % of control
same,T/C,[5],105 % of control
same,T/C,[6],99 % of control
same,T/C,[7],88 % of control
same,T/C,[8],108 % of control
COc1cccc(CC2=C3CCCN(C(=O)c4ccccc4)C3CCC2=O)c1 (configuration not stated),T/C,"dose: 100.0 mg/kg/injection, schedule: Q01DX001 (ip), vehicle: saline sonified",90 % of control
same,T/C,"dose: 200.0 mg/kg/injection, schedule: Q01DX001 (ip), vehicle: saline sonified",90 % of control
same,T/C,"dose: 400.0 mg/kg/injection, schedule: Q01DX001 (ip), vehicle: saline sonified",104 % of control
CCCCNC(=O)c1ccccc1Sc1ccccc1C(=O)NCCCC,T/C,"dose: 100.0 mg/kg/injection, schedule: Q04DX002 (ip), vehicle: saline with Tween-80",107 % of control
same,T/C,"dose: 200.0 mg/kg/injection, schedule: Q04DX002 (ip), vehicle: saline with Tween-80",109 % of control
same,T/C,"dose: 400.0 mg/kg/injection, schedule: Q04DX002 (ip), vehicle: saline with Tween-80",104 % of control
CC[C@@]1(O)C[C@H](OC2CC(N(C)C)C(O)C(C)O2)c2c(O)c3c(c(O)c2[C@H]1OC1CC(N(C)C)C(O)C(C)O1)C(=O)c1cccc(O)c1C3=O (some centres not stated),T/C,"dose: 0.25 mg/kg/injection, schedule: Q01DX010 (ip), vehicle: saline",100 % of control
C1=NCCCN1,T/C,"dose: 25.0 mg/kg/injection, schedule: Q04DX003 (ip), vehicle: saline",100 % of control
same,T/C,"dose: 50.0 mg/kg/injection, schedule: Q04DX003 (ip), vehicle: saline",100 % of control
same,T/C,"dose: 100.0 mg/kg/injection, schedule: Q04DX003 (ip), vehicle: saline",100 % of control
O=C(N/N=C/c1cccc(Cl)c1)c1ccccc1,T/C,[9],95 % of control
same,T/C,[10],95 % of control
same,T/C,[11],113 % of control
CC1(C)N=C(N)N=C(N)N1c1ccc(OCC(=O)N2CCOCC2)cc1,T/C,[12],113 % of control
same,T/C,[13],113 % of control
O=C1NC(Cc2ccccc2)C(=O)NC1Cc1ccccc1 (configuration not stated),T/C,"dose: 6.25 mg/kg/injection, schedule: Q01DX009 (ip), vehicle: saline with Tween-80",106 % of control
same,T/C,[1],101 % of control
same,T/C,[14],108 % of control
CCOC(=O)c1cc(C(=O)OCC)c(=O)oc1OCC,T/C,[12],118 % of control
same,T/C,[13],104 % of control
same,T/C,"dose: 100.0 mg/kg/injection, schedule: Q01DX009 (ip), vehicle: saline",118 % of control
CCC[CH2][Sn]([Cl])([CH2]CCC)[S]C(=S)NCCNC(=S)[S][Sn]([Cl])([CH2]CCC)[CH2]CCC,T/C,"dose: 1.56 mg/kg/injection, schedule: Q04DX003 (ip), vehicle: Klucel (hydroxypropylcellulose) (HPC)",110 % of control
same,T/C,"dose: 3.12 mg/kg/injection, schedule: Q01DX009 (ip), vehicle: Klucel (hydroxypropylcellulose) (HPC)",105 % of control
same,T/C,"dose: 3.13 mg/kg/injection, schedule: Q04DX003 (ip), vehicle: Klucel (hydroxypropylcellulose) (HPC)",124 % of control
same,T/C,"dose: 6.25 mg/kg/injection, schedule: Q01DX009 (ip), vehicle: Klucel (hydroxypropylcellulose) (HPC)",153 % of control
same,T/C,"dose: 6.25 mg/kg/injection, schedule: Q04DX003 (ip), vehicle: Klucel (hydroxypropylcellulose) (HPC)",154 % of control
same,T/C,"dose: 12.5 mg/kg/injection, schedule: Q01DX009 (ip), vehicle: Klucel (hydroxypropylcellulose) (HPC)",156 % of control and 158 % of control
same,T/C,"dose: 12.5 mg/kg/injection, schedule: Q04DX003 (ip), vehicle: Klucel (hydroxypropylcellulose) (HPC)",100 % of control and 105 % of control
same,T/C,[15],194 % of control
CN(C)c1ccc(N(C)C)c(C(O)(c2ccccc2)c2ccccc2)c1,T/C,[1],95 % of control
same,T/C,[14],93 % of control
same,T/C,[2],95 % of control
NC(=S)N/N=C/c1ncccc1F,T/C,"dose: 25.0 mg/kg/injection, schedule: Q04DX003 (ip), vehicle: saline with Tween-80",110 % of control
same,T/C,[16],119 % of control
c1ccc(C2OC2c2ccccc2)cc1 (configuration not stated),T/C,"dose: 50.0 mg/kg/injection, schedule: Q04DX003 (ip), vehicle: Klucel (hydroxypropylcellulose) (HPC)",89 % of control
same,T/C,"dose: 75.0 mg/kg/injection, schedule: Q01DX009 (ip), vehicle: Klucel (hydroxypropylcellulose) (HPC)",90 % of control
same,T/C,[17],89 % of control
same,T/C,"dose: 150.0 mg/kg/injection, schedule: Q01DX009 (ip), vehicle: Klucel (hydroxypropylcellulose) (HPC)",104 % of control
same,T/C,"dose: 300.0 mg/kg/injection, schedule: Q01DX009 (ip), vehicle: Klucel (hydroxypropylcellulose) (HPC)",104 % of control
C(=C(\Cc1ccccc1)c1ccccc1)/c1ccccc1,T/C,"dose: 50.0 mg/kg/injection, schedule: Q01DX005 (ip), vehicle: saline with Tween-80",99 % of control
same,T/C,"dose: 100.0 mg/kg/injection, schedule: Q01DX005 (ip), vehicle: saline with Tween-80",103 % of control
same,T/C,"dose: 200.0 mg/kg/injection, schedule: Q01DX005 (ip), vehicle: saline with Tween-80",103 % of control
CCCCN(CCCC)CCNc1ccc(Cl)c2oc3cc(C)ccc3c(=O)c12,T/C,[2],100 % of control
same,T/C,[3],104 % of control
same,T/C,[4],100 % of control
same,T/C,[5],104 % of control
same,T/C,[6],100 % of control
C[C@H]1C[C@@H]2[C@H]([C@@H](O)C[C@@]3(C)[C@H]2CC[C@]3(O)C(=O)CO)[C@@]2(C)C=CC(=O)C=C12,T/C,[5],104 % of control
same,T/C,[7],90 % of control
O=C(c1ccccc1)c1ccccc1C(=O)c1ccccc1,T/C,[15],95 % of control
same,T/C,"dose: 50.0 mg/kg/injection, schedule: Q01DX009 (ip), vehicle: Klucel (hydroxypropylcellulose) (HPC)",100 % of control
same,T/C,[18],89 % of control and 91 % of control
same,T/C,[17],109 % of control
same,T/C,[19],104 % of control
same,T/C,[20],118 % of control
CCCCCCCCCCCCCCCC(=O)N(CCCN)C(C)CCCN(CC)CC (configuration not stated),T/C,[1],106 % of control
same,T/C,[14],99 % of control
same,T/C,[16],107 % of control
same,T/C,[4],93 % of control
O=S1(=O)C=C(c2ccccc2)C1,T/C,[2],108 % of control
same,T/C,[3],107 % of control
Cc1ccc2c(=O)n3cccc3c(=O)[nH]c2c1O,T/C,[4],103 % of control
same,T/C,[6],100 % of control
same,T/C,[8],96 % of control
CCOP(=S)(N1CC1C)N1CC1C (configuration not stated),T/C,"dose: 66.0 mg/kg/injection, schedule: Q04DX003 (ip), vehicle: saline with Tween-80",116 % of control
same,T/C,"dose: 100.0 mg/kg/injection, schedule: Q01DX007 (ip), vehicle: saline with Tween-80",163 % of control
same,T/C,[4],112 % of control
same,T/C,"dose: 150.0 mg/kg/injection, schedule: Q01DX007 (ip), vehicle: saline with Tween-80",159 % of control
same,T/C,"dose: 150.0 mg/kg/injection, schedule: Q04DX003 (ip), vehicle: saline with Tween-80",120 % of control
O=[N+]([O-])c1cccc2c[n+](Cc3ccc(Br)cc3)ccc12,T/C,[1],123 % of control
CO[C@H]1C[C@H](O[C@H]2CC[C@@]3(C)[C@H](CC[C@@H]4[C@@H]3CC[C@]3(C)[C@@H](C5=CC(=O)OC5)CC[C@]43O)C2)O[C@H](C)[C@H]1O,T/C,"dose: 4.3 mg/kg/injection, schedule: Q01DX009 (ip), vehicle: saline with Tween-80",99 % of control
same,T/C,"dose: 6.4 mg/kg/injection, schedule: Q01DX009 (ip), vehicle: saline with Tween-80",107 % of control
same,T/C,"dose: 9.6 mg/kg/injection, schedule: Q01DX009 (ip), vehicle: saline with Tween-80",107 % of control
CC1SC(c2ccccc2)N(c2ccccc2)C1=O (configuration not stated),T/C,[18],104 % of control
same,T/C,[17],104 % of control
same,T/C,[21],116 % of control
same,T/C,[19],104 % of control
same,T/C,"dose: 400.0 mg/kg/injection, schedule: Q01DX009 (ip), vehicle: Klucel (hydroxypropylcellulose) (HPC)",100 % of control
same,T/C,[20],109 % of control
CCCn1cnc2c(SCc3ccccc3Cl)nc(N)nc21,T/C,[18],90 % of control
same,T/C,[9],100 % of control
same,T/C,[21],95 % of control
same,T/C,[10],95 % of control
same,T/C,[11],104 % of control
